In ChEMBL document CHEMBL1201862, “PubChem BioAssay data set” (2004):
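96-well plates; 48 h exposure; 5 concentrations. Endpoints by linear interpolation between flanking doses. Not reached: highest tested concentration assigned. GI50 = concentration required for 50% inhibition of growth.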 Activity calls are given as the source filed them. Cut-off read from the data, not from the text of the source: active = GI50 up to about 1.1 µM and inactive = higher.

Tests used:
Experiment in all cases: NCI-60 cell line screen, 48 h
[1] = tested on: 786-0
[2] = tested on: BT-549
[3] = tested on: CAKI-1
[4] = tested on: HCT-15
[5] = tested on: HL-60
[6] = tested on: HT-29
[7] = tested on: K562
[8] = tested on: MCF7
[9] = tested on: MDA-MB-231
[10] = tested on: MDA-MB-435
[11] = tested on: MDA-N
[12] = tested on: OVCAR-4
[13] = tested on: SN12C
[14] = tested on: SNB-75
[15] = tested on: UACC-62
[16] = tested on: LOX IMVI
[17] = tested on: NCI-H226
[18] = tested on: RXF 393
[19] = tested on: SF-295

SMILES: COC(=O)[C@]1(C)CCCC2(C)C3=C(CCC21)CC1(CC3)SCCS1 (some centres not stated)
- GI50 [1]: > 10 µM (inactive)
- GI50 [2]: > 10 µM (inactive)
- GI50 [3]: > 10 µM (inactive)
- GI50 [4]: > 10 µM
- GI50 [5]: > 10 µM (inactive)
- GI50 [6]: > 10 µM (inactive)
- GI50 [7]: > 10 µM (inactive)
- GI50 [8]: > 10 µM (inactive)
- GI50 [9]: > 10 µM (inactive)
- GI50 [10]: > 10 µM (inactive)
- GI50 [11]: > 10 µM (inactive)
- GI50 [12]: > 10 µM (inactive)
- GI50 [13]: > 10 µM (inactive)
- GI50 [14]: > 10 µM (inactive)
- GI50 [15]: > 10 µM (inactive)

SMILES: COc1ccc(N2C(=O)/C(=C\c3cc(OC)c(OC)c(OC)c3)S(=O)(=O)C2c2ccccc2)cc1 (configuration not stated)
- GI50 [1]: 43.5 µM (inactive)
- GI50 [2]: 22 µM (inactive)
- GI50 [3]: 84.7 µM (inactive)
- GI50 [4]: 27.7 µM
- GI50 [7]: 12.7 µM (inactive)
- GI50 [16]: 20 µM (inactive)
- GI50 [8]: 30.2 µM (inactive)
- GI50 [9]: 34.8 µM (inactive)
- GI50 [10]: 21.8 µM (inactive)
- GI50 [11]: 13.9 µM (inactive)
- GI50 [17]: 30.8 µM (inactive)
- GI50 [12]: 42 µM (inactive)
- GI50 [18]: 15.7 µM (inactive)
- GI50 [19]: 21.2 µM (inactive)
- GI50 [13]: > 100 µM (inactive)
- GI50 [15]: 21.6 µM (inactive)

SMILES: N#Cc1cc(-c2nc3cc(F)ccc3s2)ccc1N
- GI50 [1]: 27.6 µM (inactive)
- GI50 [2]: 2.3 µM (inactive)
- GI50 [3]: > 38.7 µM (inactive)
- GI50 [4]: 0.384 µM
- GI50 [5]: > 100 µM (inactive)
- GI50 [6]: 1.97 µM (inactive)
- GI50 [7]: > 100 µM (inactive)
- GI50 [16]: > 100 µM (inactive)
- GI50 [8]: < 0.01 µM (active)
- GI50 [9]: 8.83 µM (inactive)
- GI50 [10]: > 78.3 µM (inactive)
- GI50 [17]: 3.34 µM (inactive)
- GI50 [12]: 0.718 µM (active)
- GI50 [18]: 2.11 µM (inactive)
- GI50 [19]: 20.4 µM (inactive)
- GI50 [13]: > 100 µM (inactive)
- GI50 [14]: 1.59 µM (inactive)
- GI50 [15]: 14.9 µM (inactive)

SMILES: O=c1c2ccccc2[nH]c2c(Cl)cc(Cl)c(N3CCCCC3)c12
- GI50 [1]: > 10 µM (inactive)
- GI50 [2]: 43.5 µM (inactive)
- GI50 [3]: 30.5 µM (inactive)
- GI50 [4]: 44.8 µM
- GI50 [5]: 37.5 µM (inactive)
- GI50 [6]: 16 µM (inactive)
- GI50 [7]: > 10 µM (inactive)
- GI50 [16]: 41.6 µM (inactive)
- GI50 [8]: 20.7 µM (inactive)
- GI50 [9]: 33.6 µM (inactive)
- GI50 [10]: 22.8 µM (inactive)
- GI50 [11]: 24.3 µM (inactive)
- GI50 [17]: 23.7 µM (inactive)
- GI50 [12]: 71.6 µM (inactive)
- GI50 [19]: 32.4 µM (inactive)
- GI50 [13]: 22.1 µM (inactive)
- GI50 [14]: 30.1 µM (inactive)
- GI50 [15]: > 10 µM (inactive)
